Laboratory results from US10597391B2, “Urea-containing isoxazole derivatives as FXR agonists and methods of use thereof” (Enanta Pharmaceuticals, Inc., priority 2016, dated 2020).
Read-outs that look alike come from different tables or passages of the source.

Biological target: T1, human FXR (NR1H4) (Homo sapiens, UniProt Q96RI1)
T1 sequence (Q96RI1 1-486): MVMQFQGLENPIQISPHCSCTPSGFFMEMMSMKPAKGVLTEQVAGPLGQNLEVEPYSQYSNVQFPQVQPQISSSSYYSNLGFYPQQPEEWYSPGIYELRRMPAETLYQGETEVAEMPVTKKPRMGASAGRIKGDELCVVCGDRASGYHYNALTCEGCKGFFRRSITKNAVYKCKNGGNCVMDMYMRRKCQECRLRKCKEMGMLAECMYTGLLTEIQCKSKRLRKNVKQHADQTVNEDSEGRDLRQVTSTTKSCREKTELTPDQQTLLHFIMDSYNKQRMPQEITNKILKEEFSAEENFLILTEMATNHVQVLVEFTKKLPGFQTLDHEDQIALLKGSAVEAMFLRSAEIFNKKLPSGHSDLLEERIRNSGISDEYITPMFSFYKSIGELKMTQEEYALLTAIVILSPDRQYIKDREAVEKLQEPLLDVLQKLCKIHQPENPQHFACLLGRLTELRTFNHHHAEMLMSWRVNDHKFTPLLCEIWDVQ
Assay: Human FXR (NR1H4) Assay: Gal4 promoter driven luciferase reporter transactivation in CHO cells (Indigo Bioscience kit IB00601)
Format: cell-based
Conditions: for EC50: Human FXR (NR1H4) reporter assay in CHO cells; for Emax: CHO, read-out: Efficacy (%)
Method in brief: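 CHO reporter cells expressing human NR1H4 with luciferase driven by an FXR-responsive promoter (Gal4 system), run per manufacturer's kit. Compounds applied to plated cells, then incubated a further 22 hours at 37° C. Luciferase luminescence read after detection reagent as a surrogate of FXR activation, giving potency and efficacy.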

[1] = efficacy normalized to CDCA set as 100%

SMILES | EC50 (potency range, read-out: EC50) [nM] | Emax [1] [%] | Emax [%] | EC50 (EC50, potency range) [nM]
O=C(Nc1ccccn1)N1C2CCC1CC(OCc1c(-c3c(Cl)cccc3Cl)noc1C1CC1)C2 (stereo not drawn) [Example 16] | 100 to 1000 |  |  | 
O=C(NS(=O)(=O)c1ccccc1)c1ccc(NC(=O)N2C3CCC2CC(OCc2c(-c4ccccc4OC(F)(F)F)noc2C2CC2)C3)cc1 (stereo not drawn) [Example 756] | 100 to 1000 | 205 |  | 
COc1cccc(C(=O)O)c1NC(=O)N1C2CCC1CC(OCc1c(-c3ccccc3OC(F)(F)F)noc1C1CC1)C2 (stereo not drawn) [Example 762] | 100 to 1000 | 6 |  | 
O=C(Nc1cccc(C2=CCCCC2)c1)N1C2CCC1CC(OCc1c(-c3c(Cl)cccc3Cl)noc1C1CC1)C2 (stereo not drawn) [Example 711] | < 10 | 157 |  | 
O=C(O)c1ccccc1NC(=O)N1C2CCC1CC(OCc1c(-c3ccccc3OC(F)(F)F)noc1C1CC1)C2 (stereo not drawn) [Example 744] | > 1000 | 165 |  | 
O=C(Nc1nc2ccccc2s1)N1C2CCC1CC(OCc1c(-c3c(Cl)cccc3Cl)noc1C1CC1)C2 (stereo not drawn) [Example 23] | 10 to 100 |  |  | 
CN(C)C(=O)c1cccc(NC(=O)N2C3CCC2CC(OCc2c(-c4c(Cl)cccc4Cl)noc2C2CC2)C3)c1 (stereo not drawn) [Example 215] | < 10 |  |  | 
CC(=O)N1CC=C(c2cccc(NC(=O)N3C4CCC3CC(OCc3c(-c5c(Cl)cccc5Cl)noc3C3CC3)C4)c2)CC1 (stereo not drawn) [Example 713] | < 10 | 162 |  | 
CC1(S(=O)(=O)NC(=O)c2ccc(NC(=O)N3C4CCC3CC(OCc3c(-c5c(Cl)cccc5Cl)noc3C3CC3)C4)c(F)c2)CC1 (stereo not drawn) [Example 693] | 100 to 1000 | 203 |  | 
O=C(NCc1cccc(C(F)(F)F)c1)N1C2CCC1CC(OCc1c(-c3c(Cl)cccc3Cl)noc1C1CC1)C2 (stereo not drawn) [Example 734] | 10 to 100 | 172 |  | 
O=C(O)c1cccnc1NC(=O)N1C2CCC1CC(OCc1c(-c3ccccc3OC(F)(F)F)noc1C1CC1)C2 (stereo not drawn) [Example 772] | > 1000 | 31 |  | 
O=C(O)c1ccc(NC(=O)N2C3CCC2CC(OCc2c(-c4c(Cl)cccc4Cl)noc2C2CC2)C3)c(C(F)(F)F)c1 (stereo not drawn) [Example 710] | 10 to 100 | 170 |  | 
O=C(O)CNC(=O)c1ccc(NC(=O)N2C3CCC2CC(OCc2c(-c4c(Cl)cccc4Cl)noc2C2CC2)C3)c(F)c1 (stereo not drawn) [Example 783] | 100 to 1000 | 0 |  | 
COC(=O)c1ccc(NC(=O)N2C3CCC2CC(OCc2c(-c4c(Cl)cccc4Cl)noc2C2CC2)C3)cc1-c1ccc(C(F)(F)F)nc1 (stereo not drawn) [Example 796] | < 10 | 95 |  | 
COC(=O)c1cccc(F)c1NC(=O)N1C2CCC1CC(OCc1c(-c3ccccc3OC(F)(F)F)noc1C1CC1)C2 (stereo not drawn) [Example 763] | 100 to 1000 | 211 |  | 
O=C(O)c1ccc2c(c1)CN(C(=O)N1C3CCC1CC(OCc1c(-c4ccccc4OC(F)(F)F)noc1C1CC1)C3)CC2 (stereo not drawn) [Example 834] | 100 to 1000 | 102 |  | 
O=C(O)c1ccc(NC(=O)N2C3CCC2CC(OCc2c(-c4ccccc4C(F)(F)F)noc2C2CC2)C3)c(C(F)(F)F)c1 (stereo not drawn) [Example 817] | 10 to 100 | 20 |  | 
C[C@H](NC(=O)N1C2CCC1CC(OCc1c(-c3c(Cl)cccc3Cl)noc1C1CC1)C2)c1ccccc1 (stereo partly drawn) [Example 705] | < 10 | 242 |  | 
COC(=O)c1cc(F)c(NC(=O)N2C3CCC2CC(OCc2c(-c4c(Cl)cccc4Cl)noc2C2CC2)C3)cc1-c1ccccc1 (stereo not drawn) [Example 794] | < 10 | 80 |  | 
CCOC(=O)c1ccccc1NC(=O)N1C2CCC1CC(OCc1c(-c3ccccc3OC(F)(F)F)noc1C1CC1)C2 (stereo not drawn) [Example 743] | > 1000 | 140 |  | 
COC(=O)c1ccc2c(c1)CN(C(=O)N1C3CCC1CC(OCc1c(-c4ccccc4OC(F)(F)F)noc1C1CC1)C3)CC2 (stereo not drawn) [Example 833] | > 1000 | 80 |  | 
COC(=O)c1ccc(NC(=O)N2C3CCC2CC(OCc2c(-c4c(Cl)cccc4Cl)noc2C2CC2)C3)c(C(F)(F)F)c1 (stereo not drawn) [Example 709] | 100 to 1000 | 119 |  | 
O=C(O)c1ccc2nc(NC(=O)N3C4CCC3CC(OCc3c(-c5c(Cl)cccc5Cl)noc3C3CC3)C4)sc2c1 (stereo not drawn) [Example 805] | 10 to 100 | 104 |  | 
O=C(O)c1ccc(NC(=O)N2C3CCC2CC(OCc2c(-c4c(F)cccc4F)noc2C2CC2)C3)c(C(F)(F)F)c1 (stereo not drawn) [Example 818] | 10 to 100 | 25 |  | 
O=C(Nc1cccc(-c2ccccc2)c1)N1C2CCC1CC(NCc1c(-c3c(Cl)cccc3Cl)noc1C1CC1)C2 (stereo not drawn) [Example 773] |  |  | 135 | 10 to 100
O=C(O)c1cccc(NC(=O)N2C3CCC2CC(OCc2c(-c4ccccc4OC(F)(F)F)noc2C2CC2)C3)c1 (stereo not drawn) [Example 229] | 100 to 1000 |  |  | 
